Data: ChEMBL document CHEMBL1128637, “Enantioselective synthesis of inositols as intermediates for the preparation of deoxy-inositol phosphates from D-galactose” (Bioorg Med Chem Lett, 1995)

These molecules were tested against T1, Type 1 InsP3 receptor isoform S2 (Sus scrofa, UniProt P79248) (assay: Binding affinity was determined by its ability to displace specifically bound […] from purified porcine cerebellum membrane.).
Format: tissue-based

T1 sequence (P79248 whole entry, canonical isoform): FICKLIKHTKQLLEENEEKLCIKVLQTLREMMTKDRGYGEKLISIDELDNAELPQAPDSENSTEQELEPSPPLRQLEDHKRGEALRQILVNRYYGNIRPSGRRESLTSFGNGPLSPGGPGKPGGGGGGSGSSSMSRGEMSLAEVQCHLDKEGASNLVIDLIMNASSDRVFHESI

IC50	Structure (SMILES)
Not Active	OC1CC(O)C2OC3(CCCCC3)OC2C1O (stereo not drawn)
Not Active	CO[C@@H]1O[C@@H](CO)[C@@H]2OC3(CCCCC3)O[C@@H]2[C@@H]1O
Not Active	O[C@H]1[C@@H](O)[C@H](O)C[C@@H](O)[C@H]1O
Not Active	O=P(OCc1ccccc1)(OCc1ccccc1)OC1CC(OP(=O)(OCc2ccccc2)OCc2ccccc2)C(OP(=O)(OCc2ccccc2)OCc2ccccc2)C2OC3(CCCCC3)OC12 (stereo not drawn)
Not Active	CO[C@@H]1O[C@H](CO)[C@H](O)[C@H](O)[C@H]1O

The next lines start with the molecule.

Structure (SMILES)	IC50
O=P(OCc1ccccc1)(OCc1ccccc1)OC1CC(OP(=O)(OCc2ccccc2)OCc2ccccc2)C2OC3(CCCCC3)OC2C1OCc1ccccc1 (stereo not drawn)	Not Active
C=C1OC(OC)C(OCc2ccccc2)C2OC3(CCCCC3)OC12 (stereo not drawn)	Not Active
OC1CC(O)C2OC3(CCCCC3)OC2C1OCc1ccccc1 (stereo not drawn)	Not Active
COC1OC(CBr)C2OC3(CCCCC3)OC2C1O (stereo not drawn)	Not Active
COC1OC(CBr)C2OC3(CCCCC3)OC2C1OCc1ccccc1 (stereo not drawn)	Not Active
O=C1CC(O)C(OCc2ccccc2)C2OC3(CCCCC3)OC12 (stereo not drawn)	Not Active

The molecules below were run against T1, Type 1 InsP3 receptor isoform S2 (assay: Binding affinity of compound was determined by its ability to displace specifically bound […] from purified porcine cerebellum membrane).
Format: tissue-based

IC50 [nM]	Structure (SMILES)
1500	O=P(O)(O)OC1CC(OP(=O)(O)O)C(OP(=O)(O)O)C(O)C1O (stereo not drawn)
20	O=P(O)(O)O[C@@H]1[C@H](O)[C@H](O)[C@@H](OP(=O)(O)O)[C@H](OP(=O)(O)O)[C@H]1O [INS(1,4,5)P3]
